Holding throughout (settings): filed as activator
Experiment [1] has as its target Carbonic anhydrase 13 (Homo sapiens) (UniProt Q8N1Q1). The experiment is described as follows: Activation of human carbonic anhydrase 13 by stopped flow assay.
Experiment [2] has as its target Carbonic anhydrase 2 (Homo sapiens) (UniProt P00918). The experiment is described as follows: Activation of human carbonic anhydrase 2 by stopped flow assay.
Experiment [3] has as its target Carbonic anhydrase 7 (Homo sapiens) (UniProt P43166). Description: Activation of human carbonic anhydrase 7 by stopped flow assay.
Experiment [4] concerns the target Carbonic anhydrase 4 (Homo sapiens) (UniProt P22748). The experiment is described as follows: Activation of human carbonic anhydrase 4 by stopped flow assay.
Experiment [5] addresses Carbonic anhydrase 14 (Homo sapiens) (UniProt Q9ULX7). Description: Activation of human carbonic anhydrase 14 by stopped flow CO2 hydrase assay.
Experiment [6] has as its target Carbonic anhydrase 5A, mitochondrial (Homo sapiens) (UniProt P35218). Description: Activation of human carbonic anhydrase 5A by stopped flow assay.

The structures appear in SMILES notation.

Chain of Carbonic anhydrase 13 (Homo sapiens) (Q8N1Q1 whole entry, looked up): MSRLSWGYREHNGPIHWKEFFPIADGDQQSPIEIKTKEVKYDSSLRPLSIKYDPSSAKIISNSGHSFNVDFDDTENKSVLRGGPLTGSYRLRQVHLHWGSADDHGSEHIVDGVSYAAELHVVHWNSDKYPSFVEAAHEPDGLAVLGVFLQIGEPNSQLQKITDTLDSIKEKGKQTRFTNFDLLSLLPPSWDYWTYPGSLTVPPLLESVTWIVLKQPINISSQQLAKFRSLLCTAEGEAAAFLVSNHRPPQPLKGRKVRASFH
Chain of Carbonic anhydrase 5A, mitochondrial (Homo sapiens) (P35218 whole entry): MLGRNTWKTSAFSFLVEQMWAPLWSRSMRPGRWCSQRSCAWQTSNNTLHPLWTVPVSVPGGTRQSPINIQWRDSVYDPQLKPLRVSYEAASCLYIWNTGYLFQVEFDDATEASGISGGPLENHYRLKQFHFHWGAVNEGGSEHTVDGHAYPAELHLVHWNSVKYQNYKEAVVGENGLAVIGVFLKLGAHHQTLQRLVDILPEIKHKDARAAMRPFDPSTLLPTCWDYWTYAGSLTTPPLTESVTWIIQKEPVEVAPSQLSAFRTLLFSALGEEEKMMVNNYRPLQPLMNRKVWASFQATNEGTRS
Chain of Carbonic anhydrase 14 (Homo sapiens) (Q9ULX7 whole entry): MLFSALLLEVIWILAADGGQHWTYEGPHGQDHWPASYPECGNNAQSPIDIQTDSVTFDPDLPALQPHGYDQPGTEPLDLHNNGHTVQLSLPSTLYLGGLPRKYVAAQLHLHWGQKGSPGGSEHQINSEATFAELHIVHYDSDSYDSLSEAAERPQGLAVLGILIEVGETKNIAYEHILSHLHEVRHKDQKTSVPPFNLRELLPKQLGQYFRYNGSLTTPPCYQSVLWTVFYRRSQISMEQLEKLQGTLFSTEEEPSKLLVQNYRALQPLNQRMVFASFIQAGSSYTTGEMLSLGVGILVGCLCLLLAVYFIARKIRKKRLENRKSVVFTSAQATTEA
Chain of Carbonic anhydrase 4 (Homo sapiens) (P22748 whole entry): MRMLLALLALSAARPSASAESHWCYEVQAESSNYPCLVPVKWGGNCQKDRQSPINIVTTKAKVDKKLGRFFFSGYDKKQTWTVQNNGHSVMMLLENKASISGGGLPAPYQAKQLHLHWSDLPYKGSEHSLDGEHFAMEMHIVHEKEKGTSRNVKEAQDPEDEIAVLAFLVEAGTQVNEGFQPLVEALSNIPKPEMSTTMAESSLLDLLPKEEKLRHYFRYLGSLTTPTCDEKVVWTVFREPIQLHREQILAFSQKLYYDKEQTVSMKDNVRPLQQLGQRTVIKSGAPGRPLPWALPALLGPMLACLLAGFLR
Chain of Carbonic anhydrase 7 (Homo sapiens) (P43166 whole entry): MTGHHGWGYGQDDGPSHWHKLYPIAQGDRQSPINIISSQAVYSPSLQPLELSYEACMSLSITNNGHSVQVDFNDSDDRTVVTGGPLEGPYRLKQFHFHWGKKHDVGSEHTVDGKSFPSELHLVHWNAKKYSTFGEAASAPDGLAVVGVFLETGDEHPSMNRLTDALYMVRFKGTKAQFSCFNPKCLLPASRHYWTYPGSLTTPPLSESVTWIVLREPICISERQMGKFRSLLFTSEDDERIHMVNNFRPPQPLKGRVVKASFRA

Regarding `N[C@H](Cc1c[nH]c2ccccc12)C(=O)O`, the KA in experiment [1] was determined as 0.81 µM. Turning to `NCCc1c[nH]cn1`, the KA in experiment [2] worked out at 12.5 µM; in experiment [1] it was 4.6 µM.

In experiment [1], `N[C@H](Cc1c[nH]cn1)C(=O)O` gave a KA of 0.09 µM. Regarding `CNC[C@H](O)c1ccc(O)c(O)c1`, the KA was 60 µM in experiment [3], 45 µM in experiment [4], 36 µM in experiment [5] and 63 µM in experiment [6]. Turning to `N[C@@H](Cc1c[nH]cn1)C(=O)O`, the KA in experiment [1] was determined as 0.13 µM.

The record behind these values is ChEMBL document CHEMBL5036350, “Binding site comparison for coumarin inhibitors and amine/amino acid activators of human carbonic anhydrases” (Eur J Med Chem, 2021).
